Results: BindingDB's records for patent US11802108 (The University Court of The University of Edinburgh, 2023)

Target: Peptidyl-prolyl cis-trans isomerase A (Homo sapiens, UniProt P62937)
Assay: Isothermal Titration Calorimetry (ITC)
Method: The buffer used in the titrations of the compounds belonging to the ester series was 50 mM phosphate buffer, pH 6.5 and the concentration of DMSO was 2% v/v for all the compounds, unless otherwise stated in Table 51. […] Control experiments were performed, where each compound was titrated into buffer and when small amount of heat was detected due to heat of dilution, it was subtracted when processing the data using a linear fit method. In all cases the first injection was omitted from the data processing. All data were analysed using the MicroCal PEAQ-ITC Analysis software.

Peptidyl-prolyl cis-trans isomerase A, sequence (P62937 whole entry): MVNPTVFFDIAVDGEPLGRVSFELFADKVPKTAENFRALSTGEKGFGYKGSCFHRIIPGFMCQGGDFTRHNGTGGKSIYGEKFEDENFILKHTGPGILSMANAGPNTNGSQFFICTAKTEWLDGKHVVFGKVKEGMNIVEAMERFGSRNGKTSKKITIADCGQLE

For `CCOC(=O)CNC(=O)N(Cc1ccc(N)cc1)Cc1cn(CC(=O)OCC)nn1` [US11802108, Compound 20], the Kd was > 600 µM.
